The values below come from ChEMBL document CHEMBL1134443, “Sorbitol dehydrogenase inhibitors (SDIs): a new potent, enantiomeric SDI, 4-[2-1R-hydroxy-ethyl)-pyrimidin-4-yl]piperazine-1-sulfonic acid dimethylamide” (J Med Chem, 2001).

The subject of test [1] is Rattus norvegicus. Description: In vivo inhibition of diabetic rat sciatic nerve fructose accumulation. It counts as functional.
Test [2] concerns the target T1, Sorbitol dehydrogenase (Homo sapiens, UniProt Q00796).
T1 sequence (Q00796 whole entry): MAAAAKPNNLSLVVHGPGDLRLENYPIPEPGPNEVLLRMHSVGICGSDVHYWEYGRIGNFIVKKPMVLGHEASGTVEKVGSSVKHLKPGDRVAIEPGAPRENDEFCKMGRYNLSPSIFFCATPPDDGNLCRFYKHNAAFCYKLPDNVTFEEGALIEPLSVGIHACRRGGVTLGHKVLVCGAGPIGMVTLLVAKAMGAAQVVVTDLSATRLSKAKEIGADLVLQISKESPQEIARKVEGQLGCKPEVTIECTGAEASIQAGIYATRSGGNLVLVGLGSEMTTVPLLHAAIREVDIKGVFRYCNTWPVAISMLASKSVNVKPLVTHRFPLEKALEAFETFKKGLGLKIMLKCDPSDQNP
Description: In vitro inhibitory activity against human SDH.

A word on the ED50: it is the dose at which the effect has come halfway, by size or by number of responders. A higher ED50 goes with weaker potency. What is called IC50 is the midpoint of a concentration-inhibition curve. Read a low IC50 as greater potency. In test [1], `CO[C@@H](C)c1nccc(N2CCN(S(=O)(=O)N(C)C)CC2)n1` returned a 50% effective dose (ED50) of 9 mg/kg. The compound also showed a concentration for half-maximal inhibition (IC50) in test [2] of 0.486 µM.

Compound `C[C@@H](O)c1nccc(N2CCN(S(=O)(=O)N(C)C)CC2)n1` showed an ED50 in test [1] of 1.6 mg/kg. Moreover, in test [2], half-maximal inhibition (IC50) required 0.027 µM.

The compound `CN(C)S(=O)(=O)N1CCN(c2ccnc(CO)n2)CC1` had an ED50 in test [1] of 14.1 mg/kg. The compound also returned a concentration for half-maximal inhibition (IC50) in test [2] of 0.246 µM.

On to `CC(O)c1nccc(N2CCN(S(=O)(=O)N(C)C)CC2)n1` (stereo not drawn), for which the median effective dose (ED50) in test [1] was 2.4 mg/kg. In addition, 0.173 µM corresponded to half-maximal inhibition in test [2] (IC50).
